This is an account of results in patent US20250262222A1, “HETEROCYCLIC COMPOUNDS, COMPOSITIONS THEREOF, AND METHODS OF TREATMENT THEREWITH” (BeiGene Switzerland GmbH, priority 2022, published 2025).

Series [1] relates to pERK1/2(THR202/TYR204) level in AsPC-1 cell line. The experiment in a line: KRAS G12D pERK assay. Type of series: cell-based. To be noted: Homo sapiens, ASPC1, 2 h, AsPC-1 cells, 2 h compound treatment, HTRF. The gist of the method:
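AsPC-1 (KRAS G12D) cells, 30000/well, seeded overnight, then treated 2 h with a 10-point series at 0 to 10 μM final. Lysate pERK1/2 (Thr202/Tyr204) detected by HTRF after overnight antibody incubation at room temperature; IC50 from percent inhibition versus log concentration.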

The nature of series [2]: Gastrointestinal accumulation and toxicity, mono-basic vs dibasic G12D inhibitors (method not described). Type of series: in vivo. To be noted: compared to dibasic G12D inhibitors (e.g., Example 17).
The next series can be described thus: Mouse and rat PK study. Type of series: in vivo, male CD-1 mice or SD-JVC rats. To be noted: compared to dibasic G12D inhibitors (e.g., Example 17). The procedure: The pharmacokinetics of compounds were evaluated in male CD-1 mice or SD-JVC rats via intravenous and oral administration. For intravenous administration study, test compounds were dissolved in DMA:30% Solutol HS 15(w/v): Saline (20:20:60, by volume) and injected with a 1 mg/kg dose via tail vein. For oral administration study, test compounds were dissolved in 0.5% MC or PEG400/Phosal 50 PG/EtOH (30/60/10, by volume) and administrated to mice at 10 mg/kg or 30 mg/kg by gavage. Animals will be grouped and treated according to body weight. At the time points after dosing (5 (IV only), 15, and 30 min and 1, 2, 4, 8 and 24 h after administration), Rat blood samples will be collected from JVC, Mice will be anesthetized by isoflurane and blood samples will be collected from orbital bleeding. Blood samples will be collected into 1.5 mL EDTA.K2 coated EP tube. Approximately 50 μL blood (Mouse) and 150 μL blood (Rat) were collected at each time point and placed on ice, then centrifuge at 5600 rpm 7 min at 4° C. to obtain plasma. Plasma will be transferred into new tube and stored at −20° C. or dry ice temporary. The samples will be stored at −80° C. until ex vivo PK assay.
Plasma concentrations were determined via the following sample processing method and measurement conditions. An aliquot of 10 μL sample was added with 200 μL IS (Terfenadine, 5 ng/mL) in ACN. […]

pIC50: −log10 of the molar value.

Take `Nc1cc(Cl)c(C(F)(F)F)c(-c2nc3c4c(nc(OCC56COC(C5)C6)nc4c2F)N2C[C@H]4CC[C@H](N4)C2CCO3)c1` (stereo partly drawn) [Example 23, 3-((7S,10R)-13-((2-oxabicyclo[2.1.1]hexan-4-yl)methoxy)-1-fluoro-5,6,6a,7,8,9,10,11-octahydro-4-oxa-3,11a,12,14,15-pentaaza-7,10-methanocyclohepta[4,5]cycloocta[1,2,3-de]naphthalen-2-yl)-5-chloro-4-(trifluoromethyl)aniline]: the pIC50 in series [1] is 6.94. In series [2], the gastrointestinal accumulation entry is on record as “reduced gastrointestinal accumulation” and the toxicity result is “reduced toxicity”. The oral exposure result in “Mouse and rat PK study” is on record as “enhanced oral exposure”.
